What is called EC50 is the concentration at which the effect is half-maximal. Usually IC50 stands for the concentration at which inhibition is half-maximal. A low value points to higher potency.

Among the data in PubChem BioAssay AID179 (DTP/NCI, 2004) are EC50, IC50 and outcome values, retold here.

“And” between values parts separate entries of the source, which are not always exact repeats. Identical values can stand only once. The source made the active and inactive calls.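 How the source made its calls: active means compounds giving half or more protection of infected cells from virus-caused growth loss, again on retest; inactive means the rest.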 Where a SMILES comes first, the peptide text is derived from it.

The test has as its system CEM cells HIV-1 protection, formazan growth assay. In words: NCI AIDS Antiviral Assay. The settings on record: for IC50: measured here: growth of uninfected CEM cells. The gist of the method:
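Steps: treat uninfected and HIV-1-infected human CEM cells at five drug levels; quantify growth by soluble formazan; retest any compound reaching 50% protection; classify actives from the retest.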

On to `S=C1N/N=C/NN/C=N/N1`, for which the EC50 was over 562 µM and the concentration for half-maximal inhibition (IC50) worked out at 282 µM. Take `Cc1cc2c(cc1Cl)SC(NNC(=O)c1ccco1)=NS2(=O)=O`: the EC50 is over 200 µM and the IC50 is over 200 µM. Consider `O=C(c1ccccc1)C(Nc1nc2nc(-c3ccccc3)c(-c3ccccc3)n2[nH]1)c1ccccc1` (stereo not given), for which the EC50 was over 200 µM and the concentration for half-maximal inhibition (IC50) turned out to be 27.5 µM. The matching figures for `O=[N+]([O-])c1ccc(OC2CC3C4C=CC3C2C4)c([N+](=O)[O-])c1` (stereo not given): over 200 µM and over 200 µM. In the case of `NC(=O)Nn1c2c(c3c1CCCC3)CCCC2`, the result was inactive.

With `S=C(NNC1=NCCN1)Nc1ccccc1`, the EC50 is over 200 µM and the IC50 was determined as 2.82 µM. For `CC1=C(C(=O)Nc2c(C)cccc2C)C(c2ccc3c(c2)OCO3)C(C(=O)Nc2c(C)cccc2C)=C(C)N1` the same measures were over 25.7 µM and over 25.7 µM. For `O=C(CSc1nnc(-c2ccc(N=Cc3ccc(Cl)cc3)cc2)o1)Nc1ccccc1` the same measures were over 112 µM and 42.7 µM. For `O=C(O)CCC(=O)NCCNC(=O)CCC(=O)O`, the EC50 is over 955 µM and the IC50 is over 955 µM. In the case of `COc1c(Cl)cc(C(=O)c2cc(Cl)c(OC)c(C(=O)O)c2)cc1C(=O)O`, the EC50 is over 912 µM and the IC50 was over 912 µM.

In the case of `COc1cc2ccc1OCc1cccc(n1)COc1ccc(cc1OC)C=NCCNCCN=C2`, the EC50 is 132 µM and the IC50 was over 200 µM. For `Nn1c(=O)n2n(c1=O)C1CCC2C1` the same measures were over 200 µM and over 200 µM. The matching figures for `Cc1cc(=S)c2cc3c(cc2[nH]1)OCO3`: over 200 µM and 79.4 µM. The matching figures for `CCO/N=C\c1c2c(O)c3c(O)c(C)c4c(c3c1O)C(=O)C(C)(O/C=C\C(OC)C(C)C(OC(C)=O)C(C)C(O)C(C)C(O)C(C)/C=C\C=C(\C)C(=O)N2)O4` (stereo not given): over 151 µM and 8.13 µM.

Turning to `O=P1(Oc2ccccc2)C(c2ccccc2)C(c2ccccc2)=NN1c1ccccc1` (stereo not given), the EC50 is over 12.3 µM and the IC50 was over 12.3 µM. On to `N#Cc1ccc(/C=C2\Cc3ccccc3C2=O)cc1`, for which the EC50 is over 200 µM and the IC50 was over 200 µM.

With `CCCCc1ccc(C(N)=O)nc1`, the EC50 is over 200 µM and the IC50 is over 200 µM.

`Cc1ccc(NC(=O)/C(=N/NC(=O)CC#N)C2C(=O)N(c3ccccc3)N=C2N)cc1C` (stereo not given): the EC50 is over 219 µM and the IC50 was determined as 37.2 µM.

For the molecule `CCc1cccc(CC)c1N1C(=O)C2=C(SCCCS2)C1=O`, the EC50 is over 44.7 µM and the IC50 is 24 µM. The matching figures for `O=C(Sc1c(-c2ccccc2)c(=O)n(-c2ccccc2)c(=S)n1-c1ccccc1)c1ccco1`: over 200 µM and 34.7 µM. For `CCOC(=O)C1=C(C)OC(=O)[C@@]2(OC)C=C(Cl)[C@@]12C` the same measures were over 200 µM and over 200 µM. For `O=C1[C@H]2C(c3ccccc3)=NN(C(=O)c3ccccc3)[C@H]2C(=O)N1c1ccccc1`, the result was inactive. Regarding `CN(CCO)CC(=O)CC(O)(C(F)(F)F)C(F)(F)F`, the EC50 was over 200 µM and the IC50 stood at 39.8 µM. With `Cc1ccnc2c1NC(=O)c1cccnc1N2C1CC1`, the EC50 is 0.0437 µM and the IC50 was determined as 195 µM. Consider `O=C(Sc1c(-c2ccccc2)c(=O)n(-c2ccccc2)c(=S)n1-c1ccccc1)c1ccc(Cl)cc1`, for which the EC50 was over 200 µM and the IC50 was 19.5 µM. The matching figures for `CC(=O)c1c(O)c2ccc(Cl)cc2[nH]c1=O`: over 200 µM and 33.9 µM. As to `C1CCSCCCCSCCCCSCCCCSC1`, the EC50 was over 102 µM and the IC50 was over 102 µM. Take `CCCCCC=C(c1cc(Cl)c(O)c(C(=O)O)c1)c1cc(Cl)c(O)c(C(=O)O)c1`: the EC50 is over 95.5 µM and the IC50 was over 95.5 µM.

Regarding `Cn1ccc(=NS(=O)(=O)c2ccccc2)cc1`, the outcome was inactive. As to `C#C[C@@]1(O)CCCC2=CC3(CC[C@]21C)SCCS3`, the EC50 is over 200 µM and the concentration for half-maximal inhibition (IC50) was 89.1 µM. With `CC(C)N(C)C(=O)C12C3C4C1C1C2C3C41C#N` (stereo not given), the outcome was inactive. `COc1nc(OC)n(C)c(=O)c1OP(=O)(OC)OC`: the EC50 is over 200 µM and the IC50 was over 200 µM. As to `CC1SC2=NC3=C(c4ccccc4C3=O)C(c3ccccc3Cl)N2C1=O` (stereo not given), the EC50 was over 35.5 µM and the IC50 was over 35.5 µM. `Cc1cc(NC(=S)NNC(=O)Cn2nnc(-c3cccc(Cl)c3Cl)n2)ccc1Br`: the EC50 was over 200 µM and the IC50 amounted to 141 µM. For `COC(=O)/C(C#N)=C(\Nc1ccccc1)N1CCCCC1` the same measures were over 200 µM and 97.7 µM. The matching figures for `CN(C(=O)Cc1ccccc1)n1cn[n+](CC(=O)OC(C)(C)C)c1`: over 200 µM and over 200 µM. For `CCN(CC)CC[NH-].O=C([O-])C(=O)[O-].O=C([O-])C(=O)[O-].[Co+3].[K+]` the same measures were over 200 µM and 148 µM. Consider `C=CC1(c2ccc(Br)cc2)OCCCO1`, for which the EC50 was over 200 µM and the IC50 is over 200 µM. With `COc1ccc(-c2c(C#N)c(N)n(C3OC(CO)C(O)C(O)C3O)c(=S)c2C#N)cc1` (stereo not given), the EC50 was over 200 µM; the IC50 is 95.5 µM and 129 µM. `CC(C)C(NC(=O)C(N)CCCCN)C(=O)NC(CCCCN)C(=O)NCC(=O)NC(C(=O)O)C(C)O` (stereo not given) (H-KVKGT-OH; configuration not given here): the result was inactive.

In the case of `COC(=O)c1cc(C(=CCCCC=O)c2cc(Cl)c(OC)c(C(=O)OC)c2)cc(Cl)c1OC`, the EC50 is over 200 µM and the IC50 came to 11.5 µM. Regarding `c1ccc([P+](Cc2ccc3c(c2)OCO3)(c2ccccc2)c2ccccc2)cc1`, the EC50 is over 200 µM and the IC50 was determined as 3.39 µM.

As to `Cc1cc2c(cc1C)NC(C)CC(=O)N2` (stereo not given), the EC50 was over 200 µM and the IC50 is over 200 µM.

For `O=C(N/C(=C\c1ccc([N+](=O)[O-])cc1)c1nc2ccccc2s1)c1ccccc1`, the EC50 was over 32.4 µM and the IC50 is over 32.4 µM. `CC(C)C/C(CC(=O)CCC(=O)Nc1ccccc1[N+](=O)[O-])=N\NC(=O)c1cc2ccccc2cc1O`: the EC50 is over 70.8 µM and the IC50 was 11.7 µM. For `O=C(O)C1CC2(CCC1c1ccccc1)SCCS2` (stereo not given) the same measures were over 447 µM and over 447 µM. For `Nc1nc2c(ncn2COCCO)c(=O)[nH]1`, the EC50 was over 794 µM and the half-inhibitory concentration (IC50) is over 794 µM.

Take `COc1cc([N+](=O)[O-])cc2c1NC(=O)C2(C)SC` (stereo not given): the EC50 is over 200 µM and the IC50 turned out to be 30.9 µM. As to `COC(=O)c1ccc(OCc2ccc3nc(OC)c(OC)nc3c2)cc1`, the EC50 is over 4.07 µM and the half-maximal inhibitory concentration (IC50) was over 4.07 µM.

With `COc1cc2c(cc1OC)C(=O)/C(=C/c1ccccc1)CC2`, the EC50 was over 200 µM and the IC50 was found to be 117 µM. For `COc1ccccc1/C=C/c1ccnc2ccccc12` the same measures were over 200 µM and 32.4 µM.

As for `COc1cc(Nc2nc(NS(=O)(=O)c3cc(C)c(Cl)cc3S)n[nH]2)cc(OC)c1OC`, the EC50 is 112 µM and the half-maximal inhibitory concentration (IC50) was determined as 794 µM.

On to `O=c1c2c(no[n+]2[O-])c2ccccc2n1-c1ccccc1`, for which the EC50 was over 200 µM and the IC50 is 1.95 µM.

In the case of `CN(C)/C=C/c1nnnn1-c1ccc(I)cc1`, the EC50 is over 200 µM and the IC50 was determined as 33.1 µM. Regarding `CCOP(=O)(OCC)C(c1ccc(F)cc1)N(C(=O)NC(F)(F)F)c1cccc(C(F)(F)F)c1` (stereo not given), the EC50 was over 200 µM and the IC50 came to 145 µM. For `Cc1cccc(NC(=S)Nc2cccc(C)n2)n1` the same measures were over 200 µM and over 200 µM. The matching figures for `N#CC(N)(C(=O)C(=O)NCCCNC(=O)C(=O)C(N)(C#N)c1ccc(Cl)cc1)c1ccc(Cl)cc1` (stereo not given): over 174 µM and over 174 µM.

For `O=C(Nc1ccc(C2=NCCN2)cc1)C1CCC(C(=O)Nc2ccc(C3=NCCN3)cc2)CC1` (stereo not given), the EC50 was over 200 µM and the IC50 came out at 11 µM.

For `CC1=CC2c3c(O)cc(-c4cc5ccc(O)cc5o4)cc3OC3(c4ccc(O)cc4O)Oc4cc(O)ccc4[C@H](C1)C23` (stereo not given in full), the EC50 is over 22.9 µM and the half-inhibitory concentration (IC50) amounted to 2.04 µM. With `CC(C)(C)OC(=O)NCC(CNC(=O)OC(C)(C)C)C(N)=O`, the EC50 is over 407 µM and the IC50 is over 407 µM. For the molecule `NNc1nnc(CCCCCCCCc2nnc(NN)n2N)n1N`, the EC50 was over 200 µM and the IC50 is 37.2 µM. The matching figures for `O=C(O)CNCCCCCCNCC(=O)O`: over 631 µM and 617 µM. Take `CC(C)c1oc2ccccc2c1C(=O)c1ccc(O)cc1`: the EC50 was over 148 µM and the IC50 came to 13.2 µM. In the case of `CC1=NC(=Cc2cccc(Cl)c2)C(=O)N1n1c(-c2ccccc2)nc2ccccc2c1=O`, the EC50 is over 200 µM and the IC50 was found to be 36.3 µM. For `CCCCCCCCC(O)C(O)CCCCCCCC(=O)O` (stereo not given) the same measures were over 200 µM and 53.7 µM. The matching figures for `O=[N+]([O-])c1ccc(N=Nc2ccc(N=C=S)cc2)cc1`: over 200 µM and 110 µM.

With `CCCCCCCN(O)CC1OC(n2ccc(=O)[nH]c2=O)C(O)C1O` (stereo not given), the EC50 is over 200 µM and the IC50 was 141 µM. For `CC(=O)OCC12CCC3C4(C)CCCC(C)(C)C4CCC3(C)C1CC(C1=CC(=O)OC1O)O2` (stereo not given) the same measures were over 200 µM and 1.05 µM. Take `O=[N+]([O-])c1ccc(S(=O)(=O)c2ccc([N+](=O)[O-])cc2C(F)(F)F)c(C(F)(F)F)c1`: the result was inactive. Regarding `COc1cccc(C2c3cc4c(cc3OC(N3CCOCC3)C2C)OCO4)c1O` (stereo not given), the EC50 was over 200 µM and the IC50 came out at 3.09 µM. On to `CC1(C)C(=O)/C=C\C(=O)C(C)(C)C(=O)/C=C\C(=O)C(C)(C)C2=CC=C(O2)C(C)(C)C(=O)/C=C\C1=O`, for which the result was inactive.
